Where two headings read alike, the source gives them in different places. Values belong to the molecule of their own block, whether it stands above or below them.
Tests used:
Type in all cases: cell-based
MV4;11 cells = test: Cell viability assay (CellTiter-Glo) in MV4;11 cells; details: MV4;11, AML, cell viability, 3 days
Procedure: (§1) MV4;11, RS4;11, Kasumi-1, HEL and other cells were treated with NVP-BSK805, TG101209 or selected degraders for 3 days at indicated concentrations following a 3-fold serial dilution.
(§2) HEL, RS4;11, MV4;11, Kasumi-1 and other cells were cultured at 37° C. with 5% CO2 in RPMI 1640 or DMEM Medium supplemented with 10% fetal bovine serum. Cells were authenticated using the short tandem repeat (STR) assays. Mycoplasma test results were negative.
(§3) Cells were seeded at a density of 5000 cells per well in 96-well assay plates and treated with test compounds following a 8-point or 12-point 3-fold serial dilution. Three days later, cell viability was determined using the CellTiter-Glo assay kit according to the manufacturer's instructions. The dose-response curves were determined and IC50 values were calculated using the GraphPad Prism software following a nonlinear regression (least squares fit) method.

MM.1S cells = test: Cell viability assay (CellTiter-Glo) in MM.1S cells; details: Multiple Myeloma, 3 days
Procedure: as §1, §2, §3

RS4;11 cells = test: Cell viability assay (CellTiter-Glo) in RS4;11 cells; details: cell viability, read-out: IC50
Procedure, shortened: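 RS4;11 cells seeded at 5000 per well, exposed for 3 days to 8- or 12-point 3-fold serial dilutions. Viability read by CellTiter-Glo luminescence; IC50 fitted by nonlinear least-squares regression.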

Pfeiffer cells = test: Cell viability assay (CellTiter-Glo) in Pfeiffer cells; details: DLBCL, 3 days
Procedure: as §1, §2, §3

MOLT-4 cells = test: Cell viability assay (CellTiter-Glo) in MOLT-4 cells; details: MOLT-4, T-ALL, 3 days
Procedure: as §1, §2, §3

WSU-DLCL2 cells = test: Cell viability assay (CellTiter-Glo) in WSU-DLCL2 cells; details: WSU-DLCL2, DLBCL, 3 days
Procedure: as §1, §2, §3

MOLM-13 cells = test: Cell viability assay (CellTiter-Glo) in MOLM-13 cells; details: MOLM-13, AML, 3 days
Procedure: as §1, §2, §3

MEG-01 cells = test: Cell viability assay (CellTiter-Glo) in MEG-01 cells; details: MEG-01, CML, 3 days
Procedure: as §1, §2, §3

HEL cells = test: Cell viability assay (CellTiter-Glo) in HEL cells; details: erythroleukemia, cell viability, 3 days
Procedure: as §1, §2, §3

NOMO-1 cells = test: Cell viability assay (CellTiter-Glo) in NOMO-1 cells; details: NOMO-1, AML, 3 days
Procedure: as §1, §2, §3

Kasumi-1 cells = test: Cell viability assay (CellTiter-Glo) in Kasumi-1 cells; details: Kasumi-1, AML, cell viability, 3 days
Procedure: as §1, §2, §3

HL-60 cells = test: Cell viability assay (CellTiter-Glo) in HL-60 cells; details: HL-60, APL, 3 days
Procedure: as §1, §2, §3

AMO-1 cells = test: Cell viability assay (CellTiter-Glo) in AMO-1 cells; details: AMO-1, Multiple Myeloma, 3 days
Procedure: as §1, §2, §3

SU-DHL-1 cells = test: Cell viability assay (CellTiter-Glo) in SU-DHL-1 cells; details: SU-DHL-1, large cell lymphoma, 3 days
Procedure: as §1, §2, §3

KM12 cells = test: Cell viability assay (CellTiter-Glo) in KM12 cells; details: KM12, colorectal carcinoma, 3 days
Procedure: as §1, §2, §3

CCRF-CEM cells = test: Cell viability assay (CellTiter-Glo) in CCRF-CEM cells; details: T-ALL, 3 days
Procedure: as §1, §2, §3

Jurkat cells = test: Cell viability assay (CellTiter-Glo) in Jurkat cells; details: T-ALL, 3 days
Procedure: as §1, §2, §3

NCI-H929 cells = test: Cell viability assay (CellTiter-Glo) in NCI-H929 cells; details: NCI-H929, Multiple Myeloma, 3 days
Procedure: as §1, §2, §3

IC50 (MV4;11 cells): 0.391 µM | IC50 (MM.1S cells): > 10 µM | IC50 (RS4;11 cells; RS4;11, B-ALL, 3 days (Table 3)): > 10 µM | IC50 (RS4;11 cells; RS4;11 cells, 3 days, CellTiter-Glo): > 10 µM | IC50 (MOLT-4 cells): > 10 µM | IC50 (MOLM-13 cells): 0.201 µM | IC50 (HL-60 cells): > 10 µM | IC50 (SU-DHL-1 cells): > 10 µM | IC50 (CCRF-CEM cells): > 10 µM | IC50 (Jurkat cells): 2.52 µM | IC50 (NCI-H929 cells): > 10 µM
SMILES: Fc1cc(-c2cccc3ncc(-c4cnn(C5CCNCC5)c4)nc23)cc(F)c1CN1CCOCC1 [NVP-BSK805, reference compound]
IC50 (Pfeiffer cells): > 10 µM | IC50 (WSU-DLCL2 cells): > 10 µM | IC50 (MEG-01 cells): 8.87 µM | IC50 (HEL cells): 1.04 µM | IC50 (NOMO-1 cells): 6.28 µM | IC50 (Kasumi-1 cells): 0.758 µM | IC50 (AMO-1 cells): > 10 µM | IC50 (KM12 cells): 2.86 µM

IC50 (MV4;11 cells; Homo sapiens, 72 h): 0.194 µM | IC50 (MM.1S cells; Homo sapiens, MM1.S, 72 h): 6.11 µM | IC50 (RS4;11 cells; Homo sapiens, 72 h, RS4;11 cells, 3 days, CellTiter-Glo): 1.84 µM | IC50 (MOLT-4 cells; Homo sapiens, 72 h): 2.5 µM | IC50 (MOLM-13 cells; Homo sapiens, 72 h): 0.0482 µM | IC50 (HL-60 cells; Homo sapiens, 72 h): > 10 µM | IC50 (SU-DHL-1 cells; Homo sapiens, 72 h): > 10 µM | IC50 (CCRF-CEM cells; Homo sapiens, 72 h): 3.96 µM | IC50 (Jurkat cells; Homo sapiens, 72 h): 0.55 µM | IC50 (NCI-H929 cells; Homo sapiens, 72 h): > 10 µM
SMILES: Cc1cnc(Nc2ccc(N3CCN(C)CC3)cc2)nc1Nc1cccc(S(=O)(=O)NC(C)(C)C)c1 [TG101209, reference compound]
IC50 (Pfeiffer cells; Homo sapiens, 72 h): > 10 µM | IC50 (WSU-DLCL2 cells; Homo sapiens, WSUDLCL2, 72 h): 1.07 µM | IC50 (MEG-01 cells; Homo sapiens, 72 h): 7.12 µM | IC50 (HEL cells; Homo sapiens, 72 h): 1.2 µM | IC50 (NOMO-1 cells; Homo sapiens, 72 h): 1.3 µM | IC50 (Kasumi-1 cells; Homo sapiens, 72 h): 0.529 µM | IC50 (AMO-1 cells; Homo sapiens, AMO1, 72 h): 4.78 µM

Reference: US20230093099A1, “COMPOUNDS AND METHODS OF TREATING CANCERS” (CULLGEN (SHANGHAI), INC., priority 2019, published 2023)
